Results taken from US20220213128A1 (RockGen Therapeutics LLC, priority 2021, published 2022).

Key:
[1] = Human Metabolome Database; cited from earlier work
[2] = cited from earlier work
[3] = Plasma stability assay and LC-MS/MS; stability in solution; assay type: in vitro ADME; details: compared with the other designed compounds
Experimental: Having described the compounds generally, including the preferred compound candidates for use in the treatment of PD, the method utilized to test and produce the compounds may now be described. […] The stability of these compounds is determined using a plasma stability assay and LC-MS/MS. The assays are utilized to assess each compound's activity and cellular permeability human dopaminergic neuronal precursor cell lines and Caco-2 cells. […] A in silico analysis may be used to predict bioavailability, BBB penetration, and PK/PD profiles in the peripheral and central nervous system.

SMILES	lipophilicity, determined experimental value [1]	bioavailability ([2]; after peripheral conversion and gut metabolism)	fraction of oral dose that may reach the brain ([2]; certain formulations, at best)	stability in aqueous solutions and plasma [3]
N[C@@H](Cc1ccc(O)c(O)c1)C(=O)O [L-Dopa, L-3,4-dihydroxyphenylalanine]	−2.39	1%	5-10%	
N[C@@H](Cc1ccc(OC(=O)CCCC[C@@H]2CCSS2)c(O)c1)C(=O)O [RG-1]				more stable
N[C@@H](Cc1ccc(OC(=O)CCCC[C@@H]2CCSS2)c(O)c1)B(O)O [RG-2]				more stable
C[Si](C)(C)CCc1ccc(C[C@@H](N)Cc2ccc(OC(=O)CCCC[C@@H]3CCSS3)c(O)c2)cc1 [RG-4]				more stable
